Reference: the supplement of paper PMC10307832

What was measured:
Experiment in all cases: relative viability (nuclei count vs DMSO), 5 days (fraction); higher = more cells survive
[1] = compound: COc1cc2nccc(Oc3ccc(NC(=O)C4(C(=O)Nc5ccc(F)cc5)CC4)cc3)c2cc1OC [Cabozantinib] + CC1(C)CCC(c2ccc(Cl)cc2)=C(CN2CCN(c3ccc(C(=O)NS(=O)(=O)c4ccc(N[C@H](CCN5CCOCC5)CSc5ccccc5)c(S(=O)(=O)C(F)(F)F)c4)cc3)CC2)C1 [Navitoclax] (partner 0.5 µM)
Outline: (§1)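 Lung cancer cell lines were pin-tool dosed in 1536-well plates on the day after seeding, with either a lone drug or a fixed anchor-drug dose plus five library-drug doses (not always all listed) in √10 steps. Nuclei were counted on 4× images after 5 days. Relative viability is the ratio of treated-well to vehicle-well nuclei counts, with each value a median of duplicate plates.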

Zosuquidar + AZD7762 = compound: O[C@@H](COc1cccc2ncccc12)CN1CCN([C@@H]2c3ccccc3[C@@H]3[C@H](c4ccccc42)C3(F)F)CC1 [Zosuquidar] + NC(=O)Nc1cc(-c2cccc(F)c2)sc1C(=O)N[C@H]1CCCNC1 [AZD7762] (partner 0.2 µM)
Outline: as §1

Zosuquidar + Decitabine = compound: O[C@@H](COc1cccc2ncccc12)CN1CCN([C@@H]2c3ccccc3[C@@H]3[C@H](c4ccccc42)C3(F)F)CC1 [Zosuquidar] + Nc1ncn([C@H]2C[C@H](O)[C@@H](CO)O2)c(=O)n1 [Decitabine] (partner 2 µM)
Outline: as §1

Zosuquidar + Vorinostat = compound: O[C@@H](COc1cccc2ncccc12)CN1CCN([C@@H]2c3ccccc3[C@@H]3[C@H](c4ccccc42)C3(F)F)CC1 [Zosuquidar] + O=C(CCCCCCC(=O)Nc1ccccc1)NO [Vorinostat] (partner 1 µM)
Outline: as §1

Cell Line: NCI-H1993
- relative viability ([1]; first compound 0.02 µM): 0.934
- relative viability ([1]; first compound 0.06325 µM): 0.901
- relative viability ([1]; first compound 0.2 µM): 0.857
- relative viability ([1]; first compound 0.6325 µM): 0.851
- relative viability ([1]; first compound 2 µM): 0.991
- relative viability (Zosuquidar + AZD7762; first compound 0.01 µM): 0.692
- relative viability (Zosuquidar + AZD7762; first compound 0.03162 µM): 0.781
- relative viability (Zosuquidar + AZD7762; first compound 0.3162 µM): 0.858
- relative viability (Zosuquidar + AZD7762; first compound 1 µM): 0.908
- relative viability (Zosuquidar + Decitabine; first compound 0.01 µM): 0.609
- relative viability (Zosuquidar + Decitabine; first compound 0.03162 µM): 0.615
- relative viability (Zosuquidar + Decitabine; first compound 0.3162 µM): 0.583
- relative viability (Zosuquidar + Decitabine; first compound 1 µM): 0.546
- relative viability (Zosuquidar + Vorinostat; first compound 0.01 µM): 0.958
- relative viability (Zosuquidar + Vorinostat; first compound 0.03162 µM): 0.603
- relative viability (Zosuquidar + Vorinostat; first compound 0.3162 µM): 0.835
- relative viability (Zosuquidar + Vorinostat; first compound 1 µM): 0.885

Cell Line: NCI-H596
- relative viability ([1]; first compound 0.02 µM): 1.22
- relative viability ([1]; first compound 0.06325 µM): 1.2
- relative viability ([1]; first compound 0.2 µM): 0.861
- relative viability ([1]; first compound 0.6325 µM): 0.829
- relative viability ([1]; first compound 2 µM): 0.729
- relative viability (Zosuquidar + AZD7762; first compound 0.01 µM): 0.974
- relative viability (Zosuquidar + AZD7762; first compound 0.03162 µM): 1.14
- relative viability (Zosuquidar + AZD7762; first compound 0.1 µM): 0.958
- relative viability (Zosuquidar + AZD7762; first compound 0.3162 µM): 1.25
- relative viability (Zosuquidar + AZD7762; first compound 1 µM): 1.28
- relative viability (Zosuquidar + Decitabine; first compound 0.01 µM): 1.02
- relative viability (Zosuquidar + Decitabine; first compound 0.03162 µM): 0.961
- relative viability (Zosuquidar + Decitabine; first compound 0.1 µM): 1.03
- relative viability (Zosuquidar + Decitabine; first compound 0.3162 µM): 1.13
- relative viability (Zosuquidar + Decitabine; first compound 1 µM): 0.879
- relative viability (Zosuquidar + Vorinostat; first compound 0.01 µM): 0.555
- relative viability (Zosuquidar + Vorinostat; first compound 0.03162 µM): 0.637
- relative viability (Zosuquidar + Vorinostat; first compound 0.1 µM): 0.709
- relative viability (Zosuquidar + Vorinostat; first compound 0.3162 µM): 0.761
- relative viability (Zosuquidar + Vorinostat; first compound 1 µM): 0.661

Cell Line: HCC-78
- relative viability ([1]; first compound 0.02 µM): 0.71
- relative viability ([1]; first compound 0.06325 µM): 0.682
- relative viability ([1]; first compound 0.2 µM): 0.307
- relative viability ([1]; first compound 0.6325 µM): 0.224
- relative viability ([1]; first compound 2 µM): 0.186
- relative viability (Zosuquidar + AZD7762; first compound 0.01 µM): 0.685
- relative viability (Zosuquidar + AZD7762; first compound 0.3162 µM): 0.72
- relative viability (Zosuquidar + AZD7762; first compound 1 µM): 0.524
- relative viability (Zosuquidar + Decitabine; first compound 0.01 µM): 0.75
- relative viability (Zosuquidar + Decitabine; first compound 0.3162 µM): 0.804
- relative viability (Zosuquidar + Decitabine; first compound 1 µM): 0.637
- relative viability (Zosuquidar + Vorinostat; first compound 0.01 µM): 0.465
- relative viability (Zosuquidar + Vorinostat; first compound 0.3162 µM): 0.512
- relative viability (Zosuquidar + Vorinostat; first compound 1 µM): 0.402

Cell Line: NCI-H1975
- relative viability ([1]; first compound 0.02 µM): 1.25
- relative viability ([1]; first compound 0.06325 µM): 1.09
- relative viability ([1]; first compound 0.2 µM): 1.22
- relative viability ([1]; first compound 0.6325 µM): 1.01
- relative viability ([1]; first compound 2 µM): 1.05
- relative viability (Zosuquidar + AZD7762; first compound 0.01 µM): 0.675
- relative viability (Zosuquidar + AZD7762; first compound 0.03162 µM): 0.744
- relative viability (Zosuquidar + AZD7762; first compound 0.1 µM): 0.661
- relative viability (Zosuquidar + AZD7762; first compound 0.3162 µM): 0.788
- relative viability (Zosuquidar + AZD7762; first compound 1 µM): 0.791
- relative viability (Zosuquidar + Decitabine; first compound 0.01 µM): 0.4
- relative viability (Zosuquidar + Decitabine; first compound 0.03162 µM): 0.402
- relative viability (Zosuquidar + Decitabine; first compound 0.1 µM): 0.423
- relative viability (Zosuquidar + Decitabine; first compound 0.3162 µM): 0.411
- relative viability (Zosuquidar + Decitabine; first compound 1 µM): 0.547
- relative viability (Zosuquidar + Vorinostat; first compound 0.01 µM): 0.745
- relative viability (Zosuquidar + Vorinostat; first compound 0.03162 µM): 0.681
- relative viability (Zosuquidar + Vorinostat; first compound 0.1 µM): 0.75
- relative viability (Zosuquidar + Vorinostat; first compound 0.3162 µM): 0.746
- relative viability (Zosuquidar + Vorinostat; first compound 1 µM): 0.751
